Reference: paper PMC6680226, “Peptoid Efficacy against Polymicrobial Biofilms Determined by Using Propidium Monoazide‐Modified Quantitative PCR” (Chembiochem, 2016)
“Also recorded” adds a separate entry of the source. Read-outs that look alike come from different tables or passages of the source.

Assays:
[1] = test system: HepG2; experiment: alamarBlue cytotoxicity assay, HepG2 cells; details: for ED50 HepG2: alamarBlue viability, 2-100 μM from DMSO stock, 1 h with compound then 24 h incubation at 37 °C, fluorescence, triplicate on a minimum of two occasions; for Toxicity to HepG2 cells (in words): alamarBlue, up to 100 μM
Protocol: (§7) Peptoid cytotoxicity studies: All 18 peptoids were tested for cytotoxicity against HepG2 epithelial (Sigma–Aldrich) and HaCaT keratinocyte (ThermoFisher) cell lines, Cytotoxicity analyses were performed in Costar 96‐well plates (Thermo Fisher Scientific) with alamarBlue (Invitrogen/Thermo Fisher Scientific) for cell viability detection as described by the manufacturer. HepG2 and HaCaT cells were grown at 37 °C under CO2 (5 %) in DMEM (high glucose) supplemented with heat‐inactivated foetal bovine sera (FBS, 10 %; Biosera, Uckfield, UK) and penicillin/streptomycin (1 %). Cells were counted in a Neubauer Improved Haemocytometer. HepG2 or HaCaT cells were seeded 24 h prior to treatment in 96‐well plates (2×10^4 cells per well in 100 μL). After 24 h, cells were incubated in triplicate with a dilution series of compound (2–100 μM from 5 mM stock solutions in DMSO) in the medium (50 μL) for 1 h. An aliquot (40 μL) was removed from each well, before the addition of medium (90 μL) followed by incubation for 24 h (37 °C, 5 % CO2). Then, alamarBlue (10 μL) was added to each well before incubation (2 h for Hep G2, 1 h for HaCaT) prior to assessing cell viability in a fluorescent plate reader (Biotek, Winooski, VT; λ ex=560 nm, λ em=600 nm). All data were measured in triplicate on a minimum of two occasions.
(§8) Toxicity was determined using an alamarBlue® cytotoxicity assay.

[2] = test system: HaCaT; experiment: alamarBlue cytotoxicity assay, HaCaT keratinocytes; details: for ED50 HaCaT: alamarBlue viability, 2-100 μM from DMSO stock, 1 h with compound then 24 h incubation at 37 °C, fluorescence, triplicate on a minimum of two occasions; for Toxicity to HaCaT cells (in words): alamarBlue, up to 100 μM
Protocol: as §7, §8

[3] = test system: C. albicans (NCTC 3179) biofilm; experiment: Crystal violet assay, C. albicans monospecies biofilm; assay type: cell-based, Candida albicans; details: peptoid 100 μM, 24 h treatment of 4 h biofilm; n=3
Protocol: (§1) Microorganism strains and growth conditions: C. albicans (NCTC 3179) was subcultured aerobically on Sabouraud agar plates, prepared by using Sabouraud dextrose powder and agar (Oxoid, ThermoFisher) and propagated in yeast peptone dextrose broth. E. coli (ATCC 29522) and S. aureus (NCTC 6571) were grown on blood agar plates (Fanin, Dublin, Ireland) and propagated in brain heart infusion (BHI) broth (Oxoid, ThermoFisher).
(§2) Preparation and treatment of single‐species biofilms: Overnight cultures of C. albicans were washed and resuspended (1.0×10^6 cells per mL) in RPMI‐1640 (Sigma–Aldrich). Overnight cultures of S. aureus or E. coli were washed and resuspended (5.0×10^6 cells per mL) in BHI broth. Samples (100 μL) were added to microtitre plate wells (Thermo Fisher Scientific), and a biofilm was allowed to form for 4 h. Wells were washed with PBS (3×200 μL) to facilitate removal of planktonic cells, and the biofilms were then treated with 1–18 (100 μM in the appropriate medium). Plates were incubated for a further 24 h to allow biofilm maturation. After removal of planktonic cells by washing, biofilms were quantified by the crystal violet assay or by PMA‐qPCR.
(§3) Biofilm quantification by crystal violet assay: Washed biofilms were fixed with methanol (100 μL) for 10 min. Following removal of methanol, the wells were air dried and stained with crystal violet solution (Clin‐Tech, Guildford, UK) for 20 min at room temperature. Excess stain was removed by washing, then the plate was air‐dried and bound crystal violet was re‐solubilised in acetic acid (33 %, 160 μL) prior to reading at 570 nm in a GENios microtitre plate reader (Tecan, Zürich, Switzerland).

[4] = test system: S. aureus (NCTC 6571) biofilm; experiment: Crystal violet assay, S. aureus monospecies biofilm; assay type: cell-based, Staphylococcus aureus; details: peptoid 100 μM, 24 h treatment of 4 h biofilm; n=3
Protocol: as §1, §2, §3

[5] = test system: E. coli (ATCC 29522) biofilm; experiment: Crystal violet assay, E. coli monospecies biofilm; assay type: cell-based, Escherichia coli; details: peptoid 100 μM, 24 h treatment of 4 h biofilm; n=3
Protocol: as §1, §2, §3

[6] = test system: C. albicans monospecies biofilm; experiment: PMA-qPCR viable cell number, C. albicans monospecies biofilm; assay type: cell-based, Candida albicans; details: peptoid 100 μM, 24 h; n=3
Protocol: as §2
(§4) Biofilm quantification by PMA‐modified qPCR: In order to determine the bactericidal and fungicidal activity of peptoids against single‐species and polymicrobial biofilms, the biofilms were detached from the microtitre plate wells prior to quantification. The wells were washed as above, then BHI broth (100 μL) was added and the plate was sealed. Biofilm detachment was achieved by sonication for 5 min in an ultrasonic bath (Dawe, Hayes, Middlesex, UK). The remaining cells were then collected in BHI (80 μL). […]
(§5) Generation of standard curves for PMA‐qPCR: For quantification of C. albicans, S. aureus and E. coli in single‐species and polymicrobial biofilms, DNA standards were prepared by extraction of DNA from planktonic organisms with the microLYSIS‐Plus kit and purification with a DNeasy kit (Qiagen). DNA standards (10^1–10^6 cells) were used in PMA‐qPCR assays to generate standard curves from which the numbers of living organisms within the biofilms could be determined.

[7] = test system: E. coli monospecies biofilm; experiment: PMA-qPCR viable cell number, E. coli monospecies biofilm; assay type: cell-based, Escherichia coli; details: peptoid 100 μM, 24 h; n=3
Protocol: as §2, §4, §5

[8] = test system: C. albicans in polymicrobial biofilm with S. aureus; experiment: PMA-qPCR, C. albicans within C. albicans-S. aureus polymicrobial biofilm; assay type: cell-based, Candida albicans; details: peptoid 100 μM, 24 h; n=3
Protocol: (§6) Preparation and treatment of polymicrobial biofilms: Overnight cultures of C. albicans were prepared in microtitre plates as above, and allowed to adhere for 4 h to facilitate initial biofilm formation. Planktonic C. albicans cells were removed as above before the addition of S. aureus or E. coli (100 μL, 5.0×10^6 cells per mL). Bacteria were allowed to adhere to the C. albicans biofilms for 4 h to facilitate polymicrobial biofilm formation. Following a washing step, the biofilms were then treated with peptoid (10–100 μM), and incubated for a further 24 h to allow biofilm maturation. Wells were washed as above, and the polymicrobial biofilms were quantified by PMA‐modified qPCR.
as §4, §5

[9] = test system: S. aureus in polymicrobial biofilm with C. albicans; experiment: PMA-qPCR, S. aureus within C. albicans-S. aureus polymicrobial biofilm; assay type: cell-based, Staphylococcus aureus; details: 24 h; for Reduction of cell numbers of S. aureus in mixed-species biofilm: peptoid 10 μM, PMA-qPCR
Protocol: as §6
Biofilm quantification by PMA‐modified qPCR: In order to determine the bactericidal and fungicidal activity of peptoids against single‐species and polymicrobial biofilms, the biofilms were detached from the microtitre plate wells prior to quantification. The wells were washed as above, then BHI broth (100 μL) was added and the plate was sealed. Biofilm detachment was achieved by sonication for 5 min in an ultrasonic bath (Dawe, Hayes, Middlesex, UK). The remaining cells were then collected in BHI (80 μL). PMA (20 μL, 2 mM in broth;47 Biotium, Fremont, CA) was added to the biofilm suspensions […] and incubated (37 °C, 5 min) prior to photoactivation with a broad‐spectrum LED flood light (60 LED, 0.1 W) placed 15 cm from the tubes (mixed by inversion during the 20 min photoactivation step).48 DNA was extracted by using a microLYSIS‐Plus kit (Microzone, Haywards Heath, UK), and qPCR was performed in a Mx3005P qPCR System (Agilent Technologies).49, 50, 51 See the Tables in the Supporting Information.
as §5

[10] = test system: trypsin; assay type: in vitro ADME; details: trypsin 0.5 μg/mL, Tris·HCl 50 mM pH 7.8 with CaCl2 9 mM, 24 h; MALDI-TOF MS read-out
Protocol: Proteolytic stability studies: Peptoid stability was confirmed by comparing the tryptic digestion of 7 with LL‐37 (Innovagen AB, Lund, Sweden). Stock solutions (5 mg mL^−1) of 7 and LL‐37 were prepared, and samples (7.5 μL) were incubated with trypsin (0.5 μg mL^−1) and incubation buffer (37.5 μL, Tris⋅HCl (50 mM, pH 7.8) containing CaCl2 (9 mM)). After 0 h (for mass spectrometric verification) or 24 h, the reaction mixture was acidified by addition of TFA (10 %, 50 μL) to denature the enzyme and stop enzyme activity. The samples were air‐dried and then reconstituted in acetonitrile/water/TFA (50 μL, 40:59.5:0.5, v/v/v), and an aliquot (1 μL) was placed onto a stainless steel MALDI target. Samples were covered immediately with matrix (1 μL, α‐cyano‐4‐hydroxycinnamic acid (53 mM in acetonitrile/water/TFA, 70:29.98:0.02, v/v/v)). MALDI‐TOF MS was performed on a linear TOF Voyager DE‐mass spectrometer (PerSeptive Biosystems, Farmingham, MA, USA). The samples were analysed in positive detection mode, and internal mass calibration with known standards established the mass accuracy to ±0.1 %. Fifty laser scans were averaged for each sample, and variable laser intensity was used to ensure the most representative mass spectra for the wells.
4. Proteolytic Stability Study […]

[11] = test system: HaCaT
Protocol: as §7, §8

[12] = test system: HepG2
Protocol: as §7, §8

(NaeNspeNspe)4 [Peptoid 10] was tested, and the “ED50 HepG2” value [1] was 41 ± 2 µM and the “ED50 HaCaT” value [2] was 26 ± 2 µM.

With (NaeNspeNspe)3 [Peptoid 11] the “ED50 HepG2” value [1] was > 100 µM and the “ED50 HaCaT” value [2] was > 100 µM.

For (NLysNpheNphe)4 [Peptoid 1], the “ED50 HepG2” value [1] was > 100 µM and the “ED50 HaCaT” value [2] was 36 ± 1 µM.

(NaeNpheNphe)4 [Peptoid 7] was tested, and the “Efficacy against C. albicans monospecies biofilm (biomass, crystal violet)” value [3] was “amongst the most efficacious”, the “Efficacy against S. aureus monospecies biofilm (biomass, crystal violet)” value [4] was “amongst the most efficacious” and the “Efficacy against E. coli monospecies biofilm (biomass, crystal violet)” value [5] was “amongst the most efficacious”. For the same compound, the “Reduction in viable cell number, C. albicans monospecies biofilm (PMA-qPCR)” value [6] was “significant reduction in cell number”, the “Reduction in viable cell number, E. coli monospecies biofilm (PMA-qPCR)” value [7] was “significant reduction in cell number” and the “Reduction in C. albicans cell number in mixed biofilm with S. aureus (PMA-qPCR)” value [8] was “the greatest reduction”. For the same compound, the “Reduction of cell numbers of S. aureus in mixed-species biofilm” value [9] was ~100%, the “ED50 HepG2” value [1] was > 100 µM and the “Toxicity to HepG2 cells (in words)” value [1] was “negligible toxicity”. The “ED50 HaCaT” value [2] was > 100 µM and the “Toxicity to HaCaT cells (in words)” value [2] was “negligible toxicity”.

With (NahNpheNphe)4 [Peptoid 13] the “ED50 HepG2” value [1] was > 100 µM and the “ED50 HaCaT” value [2] was > 100 µM.

For (NLysNpheNphe)3 [Peptoid 2], the “ED50 HepG2” value [1] was > 100 µM and the “ED50 HaCaT” value [2] was > 100 µM.

(NLysNspeNspe)2 [Peptoid 6] was tested, and the “ED50 HepG2” value [1] was > 100 µM and the “ED50 HaCaT” value [2] was > 100 µM.

For (NLysNspeNspe)3 [Peptoid 5], the “Efficacy against C. albicans monospecies biofilm (biomass, crystal violet)” value [3] was “amongst the most efficacious”, the “Efficacy against S. aureus monospecies biofilm (biomass, crystal violet)” value [4] was “amongst the most efficacious” and the “Efficacy against E. coli monospecies biofilm (biomass, crystal violet)” value [5] was “amongst the most efficacious”. For the same compound, the “Reduction in viable cell number, C. albicans monospecies biofilm (PMA-qPCR)” value [6] was “significant reduction in cell number; also recorded: the greatest reduction in cell number”, the “Reduction in viable cell number, E. coli monospecies biofilm (PMA-qPCR)” value [7] was “significant reduction in cell number” and the “Reduction of cell numbers of S. aureus in mixed-species biofilm” value [9] was ~100%. For the same compound, the “Reduction in S. aureus cell number in mixed biofilm with C. albicans (PMA-qPCR)” value ([9]; peptoid 100 μM, n=3) was “better able to reduce the cell count”, the “ED50 HepG2” value [1] was > 100 µM and the “Toxicity to HepG2 cells (in words)” value [1] was “negligible toxicity”. For the same compound, the “ED50 HaCaT” value [2] was > 100 µM and the “Toxicity to HaCaT cells (in words)” value [2] was “negligible toxicity”.

For (NahNspeNspe)2 [Peptoid 18], the “ED50 HepG2” value [1] was > 100 µM and the “ED50 HaCaT” value [2] was > 100 µM.

(NahNspeNspe)4 [Peptoid 16] was tested, and the “ED50 HepG2” value [1] was 41 ± 1 µM and the “ED50 HaCaT” value [2] was 23 ± 1 µM.

(NaeNspeNspe)2 [Peptoid 12] was tested, and the “ED50 HepG2” value [1] was > 100 µM and the “ED50 HaCaT” value [2] was > 100 µM.

With (NLysNpheNphe)2 [Peptoid 3] the “ED50 HepG2” value [1] was > 100 µM and the “ED50 HaCaT” value [2] was > 100 µM.

With (NaeNpheNphe)3 [Peptoid 8] the “ED50 HepG2” value [1] was > 100 µM and the “ED50 HaCaT” value [2] was > 100 µM.

With (NahNpheNphe)3 [Peptoid 14] the “ED50 HepG2” value [1] was > 100 µM and the “ED50 HaCaT” value [2] was > 100 µM.

With `CC[C@H](C)[C@H](NC(=O)[C@H](CCCCN)NC(=O)[C@H](CCC(=O)O)NC(=O)[C@H](CCCCN)NC(=O)[C@H](CO)NC(=O)[C@H](CCCCN)NC(=O)[C@H](CCCNC(=N)N)NC(=O)[C@H](Cc1ccccc1)NC(=O)[C@H](Cc1ccccc1)NC(=O)[C@H](CC(=O)O)NC(=O)CNC(=O)[C@H](CC(C)C)NC(=O)[C@@H](N)CC(C)C)C(=O)NCC(=O)N[C@@H](CCCCN)C(=O)N[C@@H](CCC(=O)O)C(=O)N[C@@H](Cc1ccccc1)C(=O)N[C@@H](CCCCN)C(=O)N[C@@H](CCCNC(=N)N)C(=O)N[C@H](C(=O)N[C@H](C(=O)N[C@@H](CCC(N)=O)C(=O)N[C@@H](CCCNC(=N)N)C(=O)N[C@H](C(=O)N[C@@H](CCCCN)C(=O)N[C@@H](CC(=O)O)C(=O)N[C@@H](Cc1ccccc1)C(=O)N[C@@H](CC(C)C)C(=O)N[C@@H](CCCNC(=N)N)C(=O)N[C@@H](CC(N)=O)C(=O)N[C@@H](CC(C)C)C(=O)N[C@H](C(=O)N1CCC[C@H]1C(=O)N[C@@H](CCCNC(=N)N)C(=O)N[C@H](C(=O)N[C@@H](CCC(=O)O)C(=O)N[C@@H](CO)C(=O)O)[C@@H](C)O)C(C)C)[C@@H](C)CC)C(C)C)[C@@H](C)CC` [LL‐37] the “Degradation after treatment with trypsin” value [10] was “degraded to peptide fragments”.

With (NahNpheNphe)2 [Peptoid 15] the “ED50 HepG2” value [1] was > 100 µM and the “ED50 HaCaT” value [2] was > 100 µM.

(NLysNspeNspe)4 [Peptoid 4] was tested, and the “ED50 HaCaT” value [11] was 20 ± 1 µM and the “ED50 HepG2” value [12] was 29 ± 1 µM.

For (NaeNpheNphe)2 [Peptoid 9], the “ED50 HepG2” value [1] was > 100 µM and the “ED50 HaCaT” value [2] was > 100 µM.
